{
  "source": "paper PMC9719519",
  "about": "“Non-classical ferroptosis inhibition by a small molecule targeting PHB2” (Nature Communications, 2022)",
  "assay_in_all_cases": "biochemical",
  "parameters_in_all_cases": "Eurofins recombinant human kinase profiling, remaining kinase activity as % of control, 10 uM ATP",
  "conditions_in_all_cases": "ATP 10 uM; read-out: %Ctrl@10 μM",
  "key": {"[1]": {"biological_target": "STK25(h) (Homo sapiens, UniProt O00506)", "sequence (O00506 whole entry)": "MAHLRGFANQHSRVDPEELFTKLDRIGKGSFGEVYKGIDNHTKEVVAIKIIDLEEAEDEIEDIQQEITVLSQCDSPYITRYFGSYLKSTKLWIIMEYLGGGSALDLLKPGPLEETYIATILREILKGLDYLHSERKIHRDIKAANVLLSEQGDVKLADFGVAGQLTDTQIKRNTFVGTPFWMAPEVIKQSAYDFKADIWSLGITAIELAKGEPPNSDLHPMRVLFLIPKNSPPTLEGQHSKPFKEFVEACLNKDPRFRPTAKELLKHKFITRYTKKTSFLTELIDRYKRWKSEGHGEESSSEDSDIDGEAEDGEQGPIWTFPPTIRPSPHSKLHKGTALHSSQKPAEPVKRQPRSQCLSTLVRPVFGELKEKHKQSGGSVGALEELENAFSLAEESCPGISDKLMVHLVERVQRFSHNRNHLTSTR", "from_the_text": "(§1) To rapidly determine the biological target of YL-939, we first tested the activity of YL-939 against a panel of 401 recombinant human protein kinases by using the kinase profiling assay provided by Eurofins, since kinases are often the key components in various signal pathways[35],[36]. […] We then carried out affinity-based proteome profiling assay (ABPP) coupled with bioimaging to identify the biological target of YL-939 (Fig. 4A). To this end, we designed and synthesized a photoaffinity probe, YL-939-1 (Fig. 4A and Supplementary Fig. 5), which is YL-939 attached by a photo-crosslinker (L3) that contains a photo-reactive group diazirine and a clickable alkyne handle."}, "[2]": {"biological_target": "T1, Tie2(R849W)(h) (Homo sapiens, UniProt Q02763, R849W)", "T1 construct": "gene TEK", "T1 sequence (Q02763 whole entry R849W)": "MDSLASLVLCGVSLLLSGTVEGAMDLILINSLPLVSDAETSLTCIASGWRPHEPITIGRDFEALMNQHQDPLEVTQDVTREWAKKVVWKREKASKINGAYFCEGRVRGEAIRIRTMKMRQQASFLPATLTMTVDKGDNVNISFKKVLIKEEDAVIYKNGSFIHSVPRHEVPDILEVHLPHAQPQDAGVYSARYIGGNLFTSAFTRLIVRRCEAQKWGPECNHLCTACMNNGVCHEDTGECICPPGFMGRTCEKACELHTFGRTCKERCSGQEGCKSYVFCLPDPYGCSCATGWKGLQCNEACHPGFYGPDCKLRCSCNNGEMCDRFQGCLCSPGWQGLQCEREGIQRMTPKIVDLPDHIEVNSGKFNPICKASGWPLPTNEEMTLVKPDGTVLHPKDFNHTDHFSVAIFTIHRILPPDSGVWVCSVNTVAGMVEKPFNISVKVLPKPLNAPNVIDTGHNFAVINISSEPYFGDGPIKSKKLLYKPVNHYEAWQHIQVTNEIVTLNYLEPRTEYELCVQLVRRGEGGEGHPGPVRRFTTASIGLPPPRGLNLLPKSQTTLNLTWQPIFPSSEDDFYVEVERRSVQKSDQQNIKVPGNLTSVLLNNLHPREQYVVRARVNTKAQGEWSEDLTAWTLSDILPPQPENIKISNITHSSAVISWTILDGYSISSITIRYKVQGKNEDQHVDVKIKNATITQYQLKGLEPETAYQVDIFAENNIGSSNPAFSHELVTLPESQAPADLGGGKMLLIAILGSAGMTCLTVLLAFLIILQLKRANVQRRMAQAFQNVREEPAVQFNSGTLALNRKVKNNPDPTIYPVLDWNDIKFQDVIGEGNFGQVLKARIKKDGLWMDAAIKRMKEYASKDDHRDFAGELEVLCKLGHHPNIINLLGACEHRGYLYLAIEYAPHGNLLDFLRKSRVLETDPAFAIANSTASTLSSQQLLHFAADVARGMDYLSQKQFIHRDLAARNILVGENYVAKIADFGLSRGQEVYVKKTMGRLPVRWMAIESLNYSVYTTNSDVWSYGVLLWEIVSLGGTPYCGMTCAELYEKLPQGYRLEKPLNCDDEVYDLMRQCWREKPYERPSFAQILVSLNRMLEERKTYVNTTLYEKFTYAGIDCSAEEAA", "from_the_text": "as §1"}, "[3]": {"biological_target": "T2, Rsk2(h) (Homo sapiens, UniProt P51812)", "T2 construct": "gene RPS6KA3", "from_the_text": "as §1"}, "[4]": {"biological_target": "T3, MEKK2(h) (Homo sapiens, UniProt Q9Y2U5)", "T3 construct": "gene MAP3K2", "from_the_text": "as §1"}, "[5]": {"biological_target": "T4, MLK2(h) (Homo sapiens, UniProt Q02779)", "T4 construct": "gene MAP3K10", "from_the_text": "as §1"}, "[6]": {"biological_target": "T5, PI3 Kinase (p110(E542K)/p85)(h) (Homo sapiens, UniProt P42336, E542K)", "T5 construct": "gene PIK3CA", "from_the_text": "as §1"}, "[7]": {"biological_target": "SIK3(h) (Homo sapiens, UniProt Q9Y2K2)", "from_the_text": "as §1"}, "[8]": {"biological_target": "DDR1(h) (Homo sapiens, UniProt Q08345)", "sequence (Q08345 whole entry)": "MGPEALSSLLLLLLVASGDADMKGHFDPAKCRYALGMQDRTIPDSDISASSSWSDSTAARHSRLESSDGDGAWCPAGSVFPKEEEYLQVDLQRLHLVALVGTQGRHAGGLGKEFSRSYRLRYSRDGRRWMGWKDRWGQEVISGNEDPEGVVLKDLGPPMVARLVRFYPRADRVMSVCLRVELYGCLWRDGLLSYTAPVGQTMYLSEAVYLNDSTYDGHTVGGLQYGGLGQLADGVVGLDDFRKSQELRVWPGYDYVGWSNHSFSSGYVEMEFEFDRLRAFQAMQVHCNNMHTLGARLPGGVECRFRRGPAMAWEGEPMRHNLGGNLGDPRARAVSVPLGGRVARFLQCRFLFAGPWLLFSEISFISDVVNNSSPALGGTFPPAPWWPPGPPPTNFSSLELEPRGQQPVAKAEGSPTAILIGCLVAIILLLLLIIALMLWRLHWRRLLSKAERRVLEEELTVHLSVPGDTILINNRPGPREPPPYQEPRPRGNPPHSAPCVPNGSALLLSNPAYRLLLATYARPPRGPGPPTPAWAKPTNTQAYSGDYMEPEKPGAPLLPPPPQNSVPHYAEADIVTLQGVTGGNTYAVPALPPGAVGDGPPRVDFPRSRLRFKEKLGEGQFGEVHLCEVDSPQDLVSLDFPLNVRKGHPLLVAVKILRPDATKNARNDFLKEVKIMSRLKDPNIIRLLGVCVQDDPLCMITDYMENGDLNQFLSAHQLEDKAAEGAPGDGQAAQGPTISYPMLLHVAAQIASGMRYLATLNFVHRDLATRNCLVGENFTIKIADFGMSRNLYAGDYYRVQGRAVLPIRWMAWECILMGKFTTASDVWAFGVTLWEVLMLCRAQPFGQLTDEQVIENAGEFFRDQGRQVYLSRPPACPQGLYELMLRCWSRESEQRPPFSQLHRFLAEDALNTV", "from_the_text": "as §1"}, "[9]": {"biological_target": "T6, Rsk3(h) (Homo sapiens, UniProt Q15349)", "T6 construct": "gene RPS6KA2", "from_the_text": "as §1"}, "[10]": {"biological_target": "T7, MLK3(h) (Homo sapiens, UniProt Q16584)", "T7 construct": "gene MAP3K11", "from_the_text": "as §1"}, "[11]": {"biological_target": "T8, CaMKIIγ(h) (Homo sapiens, UniProt Q13555)", "T8 construct": "gene CAMK2G", "from_the_text": "as §1"}, "[12]": {"biological_target": "T9, MRCKγ(h) (Homo sapiens, UniProt Q6DT37)", "T9 construct": "gene CDC42BPG", "from_the_text": "as §1"}, "[13]": {"biological_target": "TYK2(h) (Homo sapiens, UniProt P29597)", "sequence (P29597 whole entry)": "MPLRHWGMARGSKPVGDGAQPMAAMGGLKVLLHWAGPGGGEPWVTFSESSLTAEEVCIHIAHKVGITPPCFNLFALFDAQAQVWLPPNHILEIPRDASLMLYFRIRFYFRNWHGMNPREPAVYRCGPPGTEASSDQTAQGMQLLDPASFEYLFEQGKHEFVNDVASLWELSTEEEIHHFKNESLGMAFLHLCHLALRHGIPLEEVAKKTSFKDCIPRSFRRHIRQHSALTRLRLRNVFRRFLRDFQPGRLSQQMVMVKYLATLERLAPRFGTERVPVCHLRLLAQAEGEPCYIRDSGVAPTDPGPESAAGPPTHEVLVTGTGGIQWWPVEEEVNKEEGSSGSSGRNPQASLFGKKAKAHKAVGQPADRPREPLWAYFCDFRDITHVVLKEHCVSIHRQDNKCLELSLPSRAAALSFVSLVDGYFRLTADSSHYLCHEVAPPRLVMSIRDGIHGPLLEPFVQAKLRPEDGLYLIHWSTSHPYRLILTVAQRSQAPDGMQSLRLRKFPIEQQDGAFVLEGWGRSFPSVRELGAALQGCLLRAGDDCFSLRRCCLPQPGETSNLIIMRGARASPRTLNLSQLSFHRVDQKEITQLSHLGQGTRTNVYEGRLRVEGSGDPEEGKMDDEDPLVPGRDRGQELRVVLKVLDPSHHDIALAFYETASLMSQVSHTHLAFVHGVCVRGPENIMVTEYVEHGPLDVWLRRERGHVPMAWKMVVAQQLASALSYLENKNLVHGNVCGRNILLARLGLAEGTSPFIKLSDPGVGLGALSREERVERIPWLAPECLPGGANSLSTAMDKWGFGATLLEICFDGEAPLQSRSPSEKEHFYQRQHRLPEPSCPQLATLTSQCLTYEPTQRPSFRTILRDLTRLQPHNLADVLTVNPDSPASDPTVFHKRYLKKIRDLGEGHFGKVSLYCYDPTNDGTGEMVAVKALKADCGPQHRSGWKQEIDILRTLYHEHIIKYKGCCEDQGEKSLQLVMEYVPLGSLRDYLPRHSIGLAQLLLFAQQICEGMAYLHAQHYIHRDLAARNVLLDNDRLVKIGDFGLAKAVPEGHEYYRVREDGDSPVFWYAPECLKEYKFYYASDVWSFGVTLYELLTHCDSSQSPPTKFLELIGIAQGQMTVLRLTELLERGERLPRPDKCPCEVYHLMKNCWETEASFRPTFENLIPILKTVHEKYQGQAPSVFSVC", "from_the_text": "as §1"}, "[14]": {"biological_target": "CDK13/cyclinK(h) (Homo sapiens, UniProt Q14004)", "from_the_text": "as §1"}, "[15]": {"biological_target": "WNK2(h) (Homo sapiens, UniProt Q9Y3S1)", "from_the_text": "as §1"}, "[16]": {"biological_target": "SGK2(h) (Homo sapiens, UniProt Q9HBY8)", "sequence (Q9HBY8 whole entry)": "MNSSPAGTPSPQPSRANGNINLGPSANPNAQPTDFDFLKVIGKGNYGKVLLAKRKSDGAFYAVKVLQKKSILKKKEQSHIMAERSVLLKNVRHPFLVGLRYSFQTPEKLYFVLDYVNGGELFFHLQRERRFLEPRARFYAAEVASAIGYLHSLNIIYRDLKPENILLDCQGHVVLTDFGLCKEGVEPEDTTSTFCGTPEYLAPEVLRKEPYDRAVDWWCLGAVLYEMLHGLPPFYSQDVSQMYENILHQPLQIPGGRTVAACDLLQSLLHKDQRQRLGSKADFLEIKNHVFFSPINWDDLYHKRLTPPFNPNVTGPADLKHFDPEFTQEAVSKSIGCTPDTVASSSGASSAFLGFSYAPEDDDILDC", "from_the_text": "as §1"}, "[17]": {"biological_target": "Ret(V804M)(h) (Homo sapiens, UniProt P07949, V804M)", "from_the_text": "as §1"}, "[18]": {"biological_target": "HIPK1(h) (Homo sapiens, UniProt Q86Z02)", "from_the_text": "as §1"}, "[19]": {"biological_target": "Ret (V804L)(h) (Homo sapiens, UniProt P07949, V804L)", "from_the_text": "as §1"}, "[20]": {"biological_target": "NEK3(h) (Homo sapiens, UniProt P51956)", "sequence (P51956 whole entry)": "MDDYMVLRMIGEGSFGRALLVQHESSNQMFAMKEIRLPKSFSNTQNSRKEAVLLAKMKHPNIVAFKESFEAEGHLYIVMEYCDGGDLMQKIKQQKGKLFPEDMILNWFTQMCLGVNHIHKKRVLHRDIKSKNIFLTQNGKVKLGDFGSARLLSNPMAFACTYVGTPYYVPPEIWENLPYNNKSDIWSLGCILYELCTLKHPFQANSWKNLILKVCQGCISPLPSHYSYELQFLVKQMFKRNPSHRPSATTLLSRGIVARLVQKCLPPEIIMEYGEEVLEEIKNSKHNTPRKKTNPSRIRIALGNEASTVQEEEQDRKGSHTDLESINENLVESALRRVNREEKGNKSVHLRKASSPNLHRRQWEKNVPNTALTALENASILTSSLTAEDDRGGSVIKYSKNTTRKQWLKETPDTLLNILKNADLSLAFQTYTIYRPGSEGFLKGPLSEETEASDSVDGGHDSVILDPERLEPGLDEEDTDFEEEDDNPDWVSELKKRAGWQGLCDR", "from_the_text": "as §1"}, "[21]": {"biological_target": "NEK2(h) (Homo sapiens, UniProt P51955)", "sequence (P51955 whole entry)": "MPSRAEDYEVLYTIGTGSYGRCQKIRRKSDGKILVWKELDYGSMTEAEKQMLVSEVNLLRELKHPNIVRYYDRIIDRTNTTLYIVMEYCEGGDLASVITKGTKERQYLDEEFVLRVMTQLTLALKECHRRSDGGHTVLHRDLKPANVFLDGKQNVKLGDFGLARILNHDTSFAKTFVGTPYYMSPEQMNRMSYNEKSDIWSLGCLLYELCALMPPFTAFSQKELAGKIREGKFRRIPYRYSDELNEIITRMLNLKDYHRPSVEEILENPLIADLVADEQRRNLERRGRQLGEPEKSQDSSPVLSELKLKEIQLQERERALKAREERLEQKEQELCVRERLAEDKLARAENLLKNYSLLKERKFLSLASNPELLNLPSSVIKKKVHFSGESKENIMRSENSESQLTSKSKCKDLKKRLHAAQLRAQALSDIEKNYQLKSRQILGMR", "from_the_text": "as §1"}, "[22]": {"biological_target": "Flt4(h) (Homo sapiens, UniProt P35916)", "from_the_text": "as §1"}},
  "data": [
    {"smiles": "C1=C(c2nc(-c3cnn(C4CCNCC4)c3)cn3cc(-c4ccccc4)nc23)CCOC1", "note": "[YL-939]", "values": [
      {"measurement": "remaining activity at 10 µM", "setting": "[1]", "result": 82, "unit": "%"},
      {"measurement": "remaining activity at 10 µM", "setting": "[2]", "result": 122, "unit": "%"},
      {"measurement": "remaining activity at 10 µM", "setting": "[3]", "result": 81, "unit": "%"},
      {"measurement": "remaining activity at 10 µM", "setting": "[4]", "result": 100, "unit": "%"},
      {"measurement": "remaining activity at 10 µM", "setting": "[5]", "result": 82, "unit": "%"},
      {"measurement": "remaining activity at 10 µM", "setting": "[6]", "result": 99, "unit": "%"},
      {"measurement": "remaining activity at 10 µM", "setting": "[7]", "result": 84, "unit": "%"},
      {"measurement": "remaining activity at 10 µM", "setting": "[8]", "result": 98, "unit": "%"},
      {"measurement": "remaining activity at 10 µM", "setting": "[9]", "result": 96, "unit": "%"},
      {"measurement": "remaining activity at 10 µM", "setting": "[10]", "result": 111, "unit": "%"},
      {"measurement": "remaining activity at 10 µM", "setting": "[11]", "result": 86, "unit": "%"},
      {"measurement": "remaining activity at 10 µM", "setting": "[12]", "result": 95, "unit": "%"},
      {"measurement": "remaining activity at 10 µM", "setting": "[13]", "result": 95, "unit": "%"},
      {"measurement": "remaining activity at 10 µM", "setting": "[14]", "result": 93, "unit": "%"},
      {"measurement": "remaining activity at 10 µM", "setting": "[15]", "result": 76, "unit": "%"},
      {"measurement": "remaining activity at 10 µM", "setting": "[16]", "result": 96, "unit": "%"},
      {"measurement": "remaining activity at 10 µM", "setting": "[17]", "result": 102, "unit": "%"},
      {"measurement": "remaining activity at 10 µM", "setting": "[18]", "result": 97, "unit": "%"},
      {"measurement": "remaining activity at 10 µM", "setting": "[19]", "result": 81, "unit": "%"},
      {"measurement": "remaining activity at 10 µM", "setting": "[20]", "result": 102, "unit": "%"},
      {"measurement": "remaining activity at 10 µM", "setting": "[21]", "result": 99, "unit": "%"},
      {"measurement": "remaining activity at 10 µM", "setting": "[22]", "result": 85, "unit": "%"}
    ]}
  ]
}
